Patent US20250163038A1, “CBL-B MODULATORS AND USES THEREOF” (Nimbus Clio, Inc., priority 2021, published 2025)

Tests used:
[1] = system: Jurkat (clone E6-1) cells with NFAT luciferase reporter; test: Jurkat reporter assay (NFAT Luciferase); assay type: cell-based; details: Homo sapiens; Jurkat NFAT luciferase reporter cells, anti-CD3 stimulation, 6 hr; read-out: Jurkat NFAT EC50
[2] = target: T1, Recombinant human c-Cbl (aa 47-435) (Homo sapiens, UniProt P22681); test: c-Cbl Biochemical Assay (TR-FRET); details: hc-Cbl Biochemical Assay (TR-FRET); read-out: TR-FRET hcCbl IC50
T1 sequence (P22681 47-435): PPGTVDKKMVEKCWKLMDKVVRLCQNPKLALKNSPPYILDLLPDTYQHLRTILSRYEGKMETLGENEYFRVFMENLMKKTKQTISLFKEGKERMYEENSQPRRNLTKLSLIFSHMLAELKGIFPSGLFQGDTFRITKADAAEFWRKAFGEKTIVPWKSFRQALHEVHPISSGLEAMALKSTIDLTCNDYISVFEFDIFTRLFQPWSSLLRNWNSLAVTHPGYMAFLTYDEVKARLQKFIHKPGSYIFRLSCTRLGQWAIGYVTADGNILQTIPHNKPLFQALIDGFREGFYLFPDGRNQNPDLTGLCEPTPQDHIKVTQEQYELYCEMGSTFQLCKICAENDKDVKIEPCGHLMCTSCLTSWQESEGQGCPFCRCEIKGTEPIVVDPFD

[3] = target: Recombinant human Cbl-b (aa 36-427) (Homo sapiens, UniProt Q13191); test: Cbl-b Biochemical Assay (TR-FRET); details: read-out: TR-FRET hCbl-b IC50
Chain of Recombinant human Cbl-b (aa 36-427) (Q13191 36-427): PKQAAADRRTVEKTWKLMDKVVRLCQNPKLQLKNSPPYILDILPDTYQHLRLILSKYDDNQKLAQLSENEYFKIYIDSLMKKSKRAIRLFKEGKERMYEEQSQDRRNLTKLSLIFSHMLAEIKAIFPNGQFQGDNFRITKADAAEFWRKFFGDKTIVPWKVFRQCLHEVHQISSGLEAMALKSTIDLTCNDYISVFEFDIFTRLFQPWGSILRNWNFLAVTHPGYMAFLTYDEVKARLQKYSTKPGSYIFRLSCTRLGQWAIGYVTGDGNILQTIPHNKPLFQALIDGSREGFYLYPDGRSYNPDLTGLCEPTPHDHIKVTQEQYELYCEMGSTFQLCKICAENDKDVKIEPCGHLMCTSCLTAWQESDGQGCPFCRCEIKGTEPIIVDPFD

Structure (SMILES) | EC50 [1] | IC50 [2] | IC50 [3]
CC(C)CNCc1cc(C(F)(F)F)c2oc(-c3cccc(-c4ccc(F)cc4-c4nncn4C)c3)nc2c1 [FX-2, N-((2-(4′-Fluoro-2′-(4-methyl-4H-1,2,4-triazol-3-yl)-[1,1′-biphenyl]-3-yl)-7-(trifluoromethyl)benzo[d]oxazol-5-yl)methyl)-2-methylpropan-1-amine] | < 200 nM | < 200 nM | < 200 nM
COCCCNCc1cc(OC)c2oc(-c3cccc(-c4ccc(F)cc4-c4nncn4C)c3)nc2c1 [FY-1, N-((2-(4′-Fluoro-2′-(4-methyl-4H-1,2,4-triazol-3-yl)-[1,1′-biphenyl]-3-yl)-7-methoxybenzo[d]oxazol-5-yl)methyl)-3-methoxypropan-1-amine] | 1000 to 10000 nM | 200 to 1000 nM | < 200 nM
Cn1cnnc1-c1cc(F)ccc1-c1cccc(-c2cn3cc(CO)ccc3n2)c1 [FZ-5, (2-(4′-Fluoro-2′-(4-methyl-4H-1,2,4-triazol-3-yl)-[1,1′-biphenyl]-3-yl)imidazo[1,2-a]pyridin-6-yl)methanol] | 10000 to 50000 nM | 10000 to 50000 nM | 1000 to 10000 nM
COc1cc(CNCC2(O)CCC2)cc2nc(-c3cccc(-c4ccc(F)cc4-c4nncn4C)c3)oc12 [GA-1, 1-((((2-(4′-Fluoro-2′-(4-methyl-4H-1,2,4-triazol-3-yl)-[1,1′-biphenyl]-3-yl)-7-methoxybenzo[d]oxazol-5-yl)methyl)amino)methyl)cyclobutan-1-ol] | < 200 nM | < 200 nM | < 200 nM
Cn1cnnc1-c1cc(F)ccc1-c1cccc(-c2nc3cc(CNCC4COC4)cc(C(F)(F)F)c3o2)c1 [GB-2, 1-(2-(4′-Fluoro-2′-(4-methyl-4H-1,2,4-triazol-3-yl)-[1,1′-biphenyl]-3-yl)-7-(trifluoromethyl)benzo[d]oxazol-5-yl)-N-(oxetan-3-ylmethyl)methanamine] | < 200 nM | < 200 nM | < 200 nM
Cn1cnnc1-c1cc(F)ccc1-c1cccc(-c2nc3cc(CNC4CCC4)cc(C(F)(F)F)c3o2)c1 [GC-2, N-((2-(4′-Fluoro-2′-(4-methyl-4H-1,2,4-triazol-3-yl)-[1,1′-biphenyl]-3-yl)-7-(trifluoromethyl)benzo[d]oxazol-5-yl)methyl)cyclobutanamine] | < 200 nM | < 200 nM | < 200 nM
CCOCCNCc1cc(OC)c2oc(-c3cccc(-c4ccc(F)cc4-c4nncn4C)c3)nc2c1 [GD-1, 2-Ethoxy-N-((2-(4′-fluoro-2′-(4-methyl-4H-1,2,4-triazol-3-yl)-[1,1′-biphenyl]-3-yl)-7-methoxybenzo[d]oxazol-5-yl)methyl)ethan-1-amine] | 200 to 1000 nM | 200 to 1000 nM | < 200 nM
COc1cc(CNCCOC(C)C)cc2nc(-c3cccc(-c4ccc(F)cc4-c4nncn4C)c3)oc12 [GE-2, N-((2-(4′-Fluoro-2′-(4-methyl-4H-1,2,4-triazol-3-yl)-[1,1′-biphenyl]-3-yl)-7-methoxybenzo[d]oxazol-5-yl)methyl)-2-isopropoxyethan-1-amine, formic Acid] | 1000 to 10000 nM | 200 to 1000 nM | < 200 nM
COc1cc(CN[C@@H](C)C2CCC2)cc2nc(-c3cccc(-c4ccc(F)cc4-c4nncn4C)c3)oc12 [GF-2, (S)-1-Cyclobutyl-N-((2-(4′-fluoro-2′-(4-methyl-4H-1,2,4-triazol-3-yl)-[1,1′-biphenyl]-3-yl)-7-methoxybenzo[d]oxazol-5-yl)methyl)ethan-1-amine] | < 200 nM | < 200 nM | < 200 nM
COc1cc(CNCCC2CCC2)cc2nc(-c3cccc(-c4ccc(F)cc4-c4nncn4C)c3)oc12 [GG-2, 2-Cyclobutyl-N-((2-(4′-fluoro-2′-(4-methyl-4H-1,2,4-triazol-3-yl)-[1,1′-biphenyl]-3-yl)-7-methoxybenzo[d]oxazol-5-yl)methyl)ethan-1-amine] | 200 to 1000 nM | < 200 nM | < 200 nM
COc1cc(CNC2CCC2)cc2nc(-c3cccc(-c4ccc(F)cc4-c4nncn4C)c3)oc12 [GH-1, N-((2-(4′-Fluoro-2′-(4-methyl-4H-1,2,4-triazol-3-yl)-[1,1′-biphenyl]-3-yl)-7-methoxybenzo[d]oxazol-5-yl)methyl)cyclobutanamine] | 200 to 1000 nM | 200 to 1000 nM | < 200 nM
COc1cc(CN[C@@H]2CCC[C@]2(C)O)cc2nc(-c3cccc(-c4ccc(F)cc4-c4nncn4C)c3)oc12 [GI-2, (1S,2R)-2-(((2-(4′-Fluoro-2′-(4-methyl-4H-1,2,4-triazol-3-yl)-[1,1′-biphenyl]-3-yl)-7-methoxybenzo[d]oxazol-5-yl)methyl)amino)-1-methylcyclopentan-1-ol, Formic Acid] | 1000 to 10000 nM | 200 to 1000 nM | 200 to 1000 nM
COc1cc(CN[C@@H]2CCC[C@@]2(C)O)cc2nc(-c3cccc(-c4ccc(F)cc4-c4nncn4C)c3)oc12 [GJ-2, (1R,2R)-2-(((2-(4′-fluoro-2′-(4-methyl-4H-1,2,4-triazol-3-yl)-[1,1′-biphenyl]-3-yl)-7-methoxybenzo[d]oxazol-5-yl)methyl)amino)-1-methylcyclopentan-1-ol, Formic Acid] | 1000 to 10000 nM | 200 to 1000 nM | 200 to 1000 nM
Cn1cnnc1-c1cc(F)ccc1-c1cccc(-c2nc3ccc(CN[C@@H]4CCC[C@@H]4O)cn3n2)c1 [GK-5, (1S,2R)-2-(((2-(4′-Fluoro-2′-(4-methyl-4H-1,2,4-triazol-3-yl)-[1,1′-biphenyl]-3-yl)-[1,2,4]triazolo[1,5-a]pyridin-6-yl)methyl)amino)cyclopentan-1-ol, Formic Acid] | 1000 to 10000 nM | 200 to 1000 nM | < 200 nM
Cn1cnnc1-c1cc(F)ccc1-c1cccc(-c2cn3cc(CN[C@@H]4CCC[C@@H]4O)ccc3n2)c1 [GL-2, (1S,2R)-2-(((2-(4′-fluoro-2′-(4-methyl-4H-1,2,4-triazol-3-yl)-[1,1′-biphenyl]-3-yl)imidazo[1,2-a]pyridin-6-yl)methyl)amino)cyclopentan-1-ol] | 10000 to 50000 nM | 1000 to 10000 nM | 1000 to 10000 nM
COCCN(C)Cc1cc(OC)c2oc(-c3cccc(-c4ccc(F)cc4-c4nncn4C)c3)nc2c1 [GM-2, N-((2-(4′-Fluoro-2′-(4-methyl-4H-1,2,4-triazol-3-yl)-[1,1′-biphenyl]-3-yl)-7-methoxybenzo[d]oxazol-5-yl)methyl)-2-methoxy-N-methylethan-1-amine] | 10000 to 50000 nM | 1000 to 10000 nM | 200 to 1000 nM

Now from value to molecule:

EC50 [1] | IC50 [2] | IC50 [3] | Structure (SMILES)
10000 to 50000 nM | 10000 to 50000 nM | 10000 to 50000 nM | Cn1cnnc1-c1cc(F)ccc1-c1cccc(-c2cn3ccc(CO)cc3n2)c1 [GN-5, (2-(4′-Fluoro-2′-(4-methyl-4H-1,2,4-triazol-3-yl)-[1,1′-biphenyl]-3-yl)imidazo[1,2-a]pyridin-7-yl)methanol]
200 to 1000 nM | < 200 nM | < 200 nM | Cn1cnnc1-c1cc(F)ccc1-c1cccc(-c2cn3ccc(CN[C@@H]4CCC[C@@H]4O)cc3n2)c1 [GO-2, (1S,2R)-2-(((2-(4′-Fluoro-2′-(4-methyl-4H-1,2,4-triazol-3-yl)-[1,1′-biphenyl]-3-yl)imidazo[1,2-a]pyridin-7-yl)methyl)amino)cyclopentan-1-ol]
200 to 1000 nM | < 200 nM | < 200 nM | Cn1cnnc1-c1cc(F)ccc1-c1cccc(-c2nc3cc(CN[C@@H]4C[C@H](O)C4(C)C)cc(C(F)(F)F)c3o2)c1 [GP-2, (1S,3R)-3-(((2-(4′-Fluoro-2′-(4-methyl-4H-1,2,4-triazol-3-yl)-[1,1′-biphenyl]-3-yl)-7-(trifluoromethyl)benzo[d]oxazol-5-yl)methyl)amino)-2,2-dimethylcyclobutan-1-ol, Formic Acid]
< 200 nM | < 200 nM | < 200 nM | Cc1cc(CNCC2CCC2)cc2nc(-c3cccc(-c4ccc(F)cc4-c4nncn4C)c3)oc12 [GU-1, 1-Cyclobutyl-N-((2-(4′-fluoro-2′-(4-methyl-4H-1,2,4-triazol-3-yl)-[1,1′-biphenyl]-3-yl)-7-methylbenzo[d]oxazol-5-yl)methyl)methanamine]
200 to 1000 nM | 200 to 1000 nM | < 200 nM | COCCNCc1cc(C)c2oc(-c3cccc(-c4ccc(F)cc4-c4nncn4C)c3)nc2c1 [GV-1, N-((2-(4′-Fluoro-2′-(4-methyl-4H-1,2,4-triazol-3-yl)-[1,1′-biphenyl]-3-yl)-7-methylbenzo[d]oxazol-5-yl)methyl)-2-methoxyethan-1-amine]
< 200 nM | < 200 nM | < 200 nM | C[C@H](NCc1cc(C(F)(F)F)c2oc(-c3cccc(-c4ccc(F)cc4-c4nncn4C)c3)nc2c1)C1CCC1 [GW-2, (S)-1-Cyclobutyl-N-((2-(4′-fluoro-2′-(4-methyl-4H-1,2,4-triazol-3-yl)-[1,1′-biphenyl]-3-yl)-7-(trifluoromethyl)benzo[d]oxazol-5-yl)methyl)ethan-1-amine]
1000 to 10000 nM | 200 to 1000 nM | < 200 nM | COc1cc(CN[C@H]2C[C@@H](O)C2)cc2nc(-c3cccc(-c4ccc(F)cc4-c4nncn4C)c3)oc12 [GX-1, (1S,3S)-3-(((2-(4′-Fluoro-2′-(4-methyl-4H-1,2,4-triazol-3-yl)-[1,1′-biphenyl]-3-yl)-7-methoxybenzo[d]oxazol-5-yl)methyl)amino)cyclobutan-1-ol]
